Like-named read-outs stand apart in the source and are kept apart here.
Key:
Assay type in all cases: cell-based
[1] = tested on: S. cerevisiae wildtype and deletion strains
[2] = tested on: S. cerevisiae single-deletion yeast strains; assay: High-throughput 96-well screen of AF sensitivity of single-gene knockouts (CFU at start and after 8 hours)
Experimental: To identify genes critical to AF action, the AF sensitivity of single-gene knockouts identified through the common transcriptional analysis were identified. In the first pass-through, 56 testable genes were identified. This set was later expanded to include targets identified through phenotypic analysis and metabolomic profiling, for a total of 84 target genes (Table 2). The initial 56 targets were tested using a rapid high-throughput 96-well assay with AMB and MCZ to identify single-gene knockouts with elevated resistance to AFs (Table 2). Knockouts that were more resistant to at least one of the AFs were tested individually using the 24-well colony forming (CF) assay. Target genes selected after the initial 56 strains were assayed individually using the 24-well CF assay.
The first 56 S. cerevisiae strains were acquired from the deletion library and stored in 96-well plates in replicates of three. To start the assay, the plates were defrosted and 10 μl of stored cells were inoculated into 100 μl of fresh synthetic dextrose complete (SDC) media for 16 hours. These overnight cultures were diluted into a fresh 96-well plate with 100 μl of SDC to achieve an OD600 of approximately 0.2. Colony forming units (CFU) in each well were measured at the start of the assay and after 8 hours of incubation. The AF susceptibility of each strain was compared to that of wildtype. Strains with significant susceptibility differences from wildtype were assayed in 0.5 ml of SDC media using the 24-well plate CF assay described above.

S. cerevisiae = assay: Mitochondrial activity by MitoTracker Red fluorescence; settings: drug added to glucose-incubated (SC, 2% glucose) S. cerevisiae
Experimental: It was next sought to assess the mitochondrial activity of AF-treated fungal cells. Yhe MitoTracker Red dye, which enters the mitochondrial matrix by utilizing the proton motive force and thus labels metabolically active mitochondria in viable cells was used (Arita et al., 2006; Tomas et al., 2011). Exponential phase S. cerevisiae were incubated in glucose-free synthetic complete (SC) media for 30 min and then switched to SC containing 2% glucose or non-fermentable acetate for 1.5 hours.
(§1) Overnight yeast cultures were diluted into the indicated media and grown to an OD600 of 0.2, at which point the AFs were added. Colony forming units (CFU) were measured by plating six serial dilutions onto YPD agar plates. Cells treated with MCZ were washed before serial dilution to stop growth inhibition associated with high concentrations of MCZ. CFU were counted after three days of incubation on agar plates. When indicated, thiourea (Fluka) was added 30 min prior to the addition of AFs. HPF (10 μM) (Invitrogen) and Mito Tracker (1 μM) (Invitrogen) dyes were added to PBS-washed cells at the indicated time points and incubated for 30 min prior to flow cytometry measurements, which were taken on the FACSCalibur (Becton-Dickinson). All experiments described in this section were conducted in 0.5 ml of SDC in 24-well plates incubated at 900 rpm and 37° C. for C. albicans and 30° C. and 300 rpm for S. cerevisiae. TUNEL assays were conducted as previously described (Ribeiro et al., 2006) and are described in detail in the TUNEL section of the Experimental Procedures.

[3] = tested on: C. albicans wildtype and DNA repair mutants; assay: Fungicidal killing, CFU assay; settings: C. albicans rad50/rad50 and rad52/rad52, 3 hours of drug exposure
Experimental: Overnight yeast cultures were diluted into the indicated media and grown to an OD600 of 0.2, at which point the AFs were added. Colony forming units (CFU) were measured by plating six serial dilutions onto YPD agar plates.
as §1

[4] = S. cerevisiae PAB103, SDH2 deletion
[5] = S. cerevisiae PAB107, NDE1 deletion
[6] = S. cerevisiae PAB112, MNE1 deletion
[7] = S. cerevisiae PAB113, FUM1 deletion
[8] = S. cerevisiae PAB114, TPK2 deletion
[9] = S. cerevisiae PAB119, CIT2 deletion
[10] = S. cerevisiae PAB121, SDH1 deletion
[11] = S. cerevisiae PAB122, TPK3 deletion
[12] = S. cerevisiae PAB124, TPK1 deletion
[13] = S. cerevisiae PAB132, CIT3 deletion
[14] = S. cerevisiae PAB135, NDI1 deletion
[15] = S. cerevisiae PAB145, CIT1 deletion

Clc1ccc(COC(Cn2ccnc2)c2ccc(Cl)cc2Cl)c(Cl)c1 (stereo not drawn) [MCZ, miconazole]
additive resistance on deleting the remaining citrate synthases in the cit3 background ([1]; S. cerevisiae CIT1/CIT2 deletions in cit3 background): not observed
CFU (24-well colony forming assay), AF susceptibility vs wildtype [1, 4]: Resistant (″Resistant″ or ″Sensitive″ indicate at least a 5-fold CFU difference from wildtype at the final time point)
CFU (24-well colony forming assay), AF susceptibility vs wildtype [1, 5]: Resistant (″Resistant″ or ″Sensitive″ indicate at least a 5-fold CFU difference from wildtype at the final time point)
CFU (24-well colony forming assay), AF susceptibility vs wildtype [1, 6]: Resistant (″Resistant″ or ″Sensitive″ indicate at least a 5-fold CFU difference from wildtype at the final time point)
CFU (24-well colony forming assay), AF susceptibility vs wildtype [1, 7]: Resistant (″Resistant″ or ″Sensitive″ indicate at least a 5-fold CFU difference from wildtype at the final time point)
CFU (24-well colony forming assay), AF susceptibility vs wildtype [1, 8]: Resistant (″Resistant″ or ″Sensitive″ indicate at least a 5-fold CFU difference from wildtype at the final time point)
CFU (24-well colony forming assay), AF susceptibility vs wildtype [1, 9]: Resistant (″Resistant″ or ″Sensitive″ indicate at least a 5-fold CFU difference from wildtype at the final time point)
CFU (24-well colony forming assay), AF susceptibility vs wildtype [1, 10]: Resistant (″Resistant″ or ″Sensitive″ indicate at least a 5-fold CFU difference from wildtype at the final time point)
CFU (24-well colony forming assay), AF susceptibility vs wildtype [1, 11]: Resistant (″Resistant″ or ″Sensitive″ indicate at least a 5-fold CFU difference from wildtype at the final time point)
CFU (24-well colony forming assay), AF susceptibility vs wildtype [1, 12]: Resistant (″Resistant″ or ″Sensitive″ indicate at least a 5-fold CFU difference from wildtype at the final time point)
CFU (24-well colony forming assay), AF susceptibility vs wildtype [1, 13]: Resistant (″Resistant″ or ″Sensitive″ indicate at least a 5-fold CFU difference from wildtype at the final time point)
CFU (24-well colony forming assay), AF susceptibility vs wildtype [1, 14]: Resistant (″Resistant″ or ″Sensitive″ indicate at least a 5-fold CFU difference from wildtype at the final time point)
CFU (24-well colony forming assay), AF susceptibility vs wildtype [1, 15]: Resistant (″Resistant″ or ″Sensitive″ indicate at least a 5-fold CFU difference from wildtype at the final time point)
CFU (24-well colony forming assay), AF susceptibility vs wildtype ([1]; S. cerevisiae PAB168, RAS1 deletion): Resistant (″Resistant″ or ″Sensitive″ indicate at least a 5-fold CFU difference from wildtype at the final time point)
CFU (24-well colony forming assay), AF susceptibility vs wildtype ([1]; S. cerevisiae PAB171, RAS2 deletion): Resistant (″Resistant″ or ″Sensitive″ indicate at least a 5-fold CFU difference from wildtype at the final time point)
reduction of killing at 3 hours by thiourea ([1]; S. cerevisiae, 50 mM thiourea for 30 minutes prior to the addition of AF drugs): ~10 fold
96 Well Screen, AF susceptibility vs wildtype ([2]; S. cerevisiae PAB101, WT): Normal
96 Well Screen, AF susceptibility vs wildtype ([2]; S. cerevisiae PAB102, HSP104 deletion): Normal
96 Well Screen, AF susceptibility vs wildtype [2, 4]: Resistant (″Resistant″ or ″Sensitive″ indicate at least a 5-fold CFU difference from wildtype at the final time point)
96 Well Screen, AF susceptibility vs wildtype ([2]; S. cerevisiae PAB104, FRE8 deletion): Normal
96 Well Screen, AF susceptibility vs wildtype ([2]; S. cerevisiae PAB105, CHA4 deletion): Normal
96 Well Screen, AF susceptibility vs wildtype ([2]; S. cerevisiae PAB106, FMS1 deletion): Normal
96 Well Screen, AF susceptibility vs wildtype [2, 5]: Resistant (″Resistant″ or ″Sensitive″ indicate at least a 5-fold CFU difference from wildtype at the final time point)
96 Well Screen, AF susceptibility vs wildtype ([2]; S. cerevisiae PAB108, ALD3 deletion): Normal
96 Well Screen, AF susceptibility vs wildtype ([2]; S. cerevisiae PAB109, GAD1 deletion): Normal
96 Well Screen, AF susceptibility vs wildtype ([2]; S. cerevisiae PAB110, PGM3 deletion): Normal
96 Well Screen, AF susceptibility vs wildtype ([2]; S. cerevisiae PAB111, PYK2 deletion): Resistant (″Resistant″ or ″Sensitive″ indicate at least a 5-fold CFU difference from wildtype at the final time point)
96 Well Screen, AF susceptibility vs wildtype [2, 6]: Normal
96 Well Screen, AF susceptibility vs wildtype [2, 7]: Resistant (″Resistant″ or ″Sensitive″ indicate at least a 5-fold CFU difference from wildtype at the final time point)
96 Well Screen, AF susceptibility vs wildtype [2, 8]: Normal
96 Well Screen, AF susceptibility vs wildtype ([2]; S. cerevisiae PAB115, ATG29 deletion): Normal
96 Well Screen, AF susceptibility vs wildtype ([2]; S. cerevisiae PAB116, ISU1 deletion): Normal
96 Well Screen, AF susceptibility vs wildtype ([2]; S. cerevisiae PAB117, CYC7 deletion): Normal
96 Well Screen, AF susceptibility vs wildtype ([2]; S. cerevisiae PAB118, ARN1 deletion): Normal
96 Well Screen, AF susceptibility vs wildtype [2, 9]: Resistant (″Resistant″ or ″Sensitive″ indicate at least a 5-fold CFU difference from wildtype at the final time point)
96 Well Screen, AF susceptibility vs wildtype ([2]; S. cerevisiae PAB120, HSP30 deletion): Resistant (″Resistant″ or ″Sensitive″ indicate at least a 5-fold CFU difference from wildtype at the final time point)
96 Well Screen, AF susceptibility vs wildtype [2, 10]: Resistant (″Resistant″ or ″Sensitive″ indicate at least a 5-fold CFU difference from wildtype at the final time point)
96 Well Screen, AF susceptibility vs wildtype [2, 11]: Resistant (″Resistant″ or ″Sensitive″ indicate at least a 5-fold CFU difference from wildtype at the final time point)
96 Well Screen, AF susceptibility vs wildtype ([2]; S. cerevisiae PAB123, ISU2 deletion): Normal
96 Well Screen, AF susceptibility vs wildtype [2, 12]: Normal
96 Well Screen, AF susceptibility vs wildtype ([2]; S. cerevisiae PAB125, MID2 deletion): Normal
96 Well Screen, AF susceptibility vs wildtype ([2]; S. cerevisiae PAB126, SSK1 deletion): Normal
96 Well Screen, AF susceptibility vs wildtype ([2]; S. cerevisiae PAB127, HSP42 deletion): Normal
96 Well Screen, AF susceptibility vs wildtype ([2]; S. cerevisiae PAB128, PIG1 deletion): Normal
96 Well Screen, AF susceptibility vs wildtype ([2]; S. cerevisiae PAB130, UGA1 deletion): Normal
96 Well Screen, AF susceptibility vs wildtype ([2]; S. cerevisiae PAB131, MTL1 deletion): Normal
96 Well Screen, AF susceptibility vs wildtype [2, 13]: Resistant (″Resistant″ or ″Sensitive″ indicate at least a 5-fold CFU difference from wildtype at the final time point)
96 Well Screen, AF susceptibility vs wildtype ([2]; S. cerevisiae PAB133, ZWF1 deletion): Normal
96 Well Screen, AF susceptibility vs wildtype ([2]; S. cerevisiae PAB134, SUM1 deletion): Normal
96 Well Screen, AF susceptibility vs wildtype [2, 14]: Normal
96 Well Screen, AF susceptibility vs wildtype ([2]; S. cerevisiae PAB136, PGM2 deletion): Resistant (″Resistant″ or ″Sensitive″ indicate at least a 5-fold CFU difference from wildtype at the final time point)
96 Well Screen, AF susceptibility vs wildtype ([2]; S. cerevisiae PAB137, HFD1 deletion): Normal
96 Well Screen, AF susceptibility vs wildtype ([2]; S. cerevisiae PAB138, PUF2 deletion): Normal
96 Well Screen, AF susceptibility vs wildtype ([2]; S. cerevisiae PAB139, TDH1 deletion): Normal
96 Well Screen, AF susceptibility vs wildtype ([2]; S. cerevisiae PAB140, GUD1 deletion): Sensitive (″Resistant″ or ″Sensitive″ indicate at least a 5-fold CFU difference from wildtype at the final time point)
96 Well Screen, AF susceptibility vs wildtype ([2]; S. cerevisiae PAB141, ATG15 deletion): Normal
96 Well Screen, AF susceptibility vs wildtype ([2]; S. cerevisiae PAB142, TDH2 deletion): Normal
96 Well Screen, AF susceptibility vs wildtype ([2]; S. cerevisiae PAB143, ATP1 deletion): Normal
96 Well Screen, AF susceptibility vs wildtype ([2]; S. cerevisiae PAB144, UGA2 deletion): Normal
96 Well Screen, AF susceptibility vs wildtype [2, 15]: Resistant (″Resistant″ or ″Sensitive″ indicate at least a 5-fold CFU difference from wildtype at the final time point)
96 Well Screen, AF susceptibility vs wildtype ([2]; S. cerevisiae PAB146, SOLI deletion): Normal
96 Well Screen, AF susceptibility vs wildtype ([2]; S. cerevisiae PAB147, PAN6 deletion): Normal
96 Well Screen, AF susceptibility vs wildtype ([2]; S. cerevisiae PAB148, SOL4 deletion): Normal
96 Well Screen, AF susceptibility vs wildtype ([2]; S. cerevisiae PAB149, YAK1 deletion): Sensitive (″Resistant″ or ″Sensitive″ indicate at least a 5-fold CFU difference from wildtype at the final time point)
96 Well Screen, AF susceptibility vs wildtype ([2]; S. cerevisiae PAB150, PBS2 deletion): Sensitive (″Resistant″ or ″Sensitive″ indicate at least a 5-fold CFU difference from wildtype at the final time point)
96 Well Screen, AF susceptibility vs wildtype ([2]; S. cerevisiae PAB152, GPD1 deletion): Sensitive (″Resistant″ or ″Sensitive″ indicate at least a 5-fold CFU difference from wildtype at the final time point)
96 Well Screen, AF susceptibility vs wildtype ([2]; S. cerevisiae PAB153, SHO1 deletion): Sensitive (″Resistant″ or ″Sensitive″ indicate at least a 5-fold CFU difference from wildtype at the final time point)
96 Well Screen, AF susceptibility vs wildtype ([2]; S. cerevisiae PAB154, FET3 deletion): Sensitive (″Resistant″ or ″Sensitive″ indicate at least a 5-fold CFU difference from wildtype at the final time point)
96 Well Screen, AF susceptibility vs wildtype ([2]; S. cerevisiae PAB155, FBP1 deletion): Sensitive (″Resistant″ or ″Sensitive″ indicate at least a 5-fold CFU difference from wildtype at the final time point)
96 Well Screen, AF susceptibility vs wildtype ([2]; S. cerevisiae PAB156, COX6 deletion): Sensitive (″Resistant″ or ″Sensitive″ indicate at least a 5-fold CFU difference from wildtype at the final time point)
increase of MitoTracker fluorescence (S. cerevisiae): 70 fold
susceptibility of DSBR mutants compared to wildtype [3]: particularly susceptible
